# Values quoted from earlier work, collected in US20150182553A1, “USE OF POLYMER D-LACTIC ACID (PDLA) TO TREAT MALARIA” (priority 2013, published 2015).
# Key:
# [1] = metabolite of PDLA
# [2] = test system: mitochondrial respiration of L-lactate; settings: brain and heart
smiles,measurement,setting,value
C[C@@H](O)C(=O)O [D-lactic acid],"average plasma concentration that may be related to reversible symptoms of altered mental status, dysarthria, and ataxia",[1],7.98 mM
same,effect on mitochondrial respiration of L-lactate,[2],block mitochondrial respiration of L-lactate in the brain and heart
